According to publication PMC5218480 (PLoS ONE, 2017):

Tested on: MV-4-11 cells
Assay: Gene expression microarray analysis (Affymetrix PrimeView) and GSEA
Type: cell-based, human
Design: RFU PODN (11730768_x_at) / Fold change /veh PODN (11730768_x_at) / RFU LINC00158 (11744669_a_at) / Fold change /veh LINC00158 (11744669_a_at) / RFU DUSP10 (11751237_a_at) / Fold change /veh DUSP10 (11751237_a_at) / RFU ID3 (11757404_x_at) / Fold change /veh ID3 (11757404_x_at) / RFU PLEKHG5 (11737974_s_at) / Fold change /veh PLEKHG5 (11737974_s_at) / RFU LRRC4B (11730491_at) / Fold change /veh LRRC4B (11730491_at) / RFU GIMAP4 (11747438_a_at) / Fold change /veh GIMAP4 (11747438_a_at) / RFU KRT8 (11758183_x_at) / Fold change /veh KRT8 (11758183_x_at) / RFU CNN1 (11734310_a_at) / Fold change /veh CNN1 (11734310_a_at) / RFU VPS37D (11726825_at) / Fold change /veh VPS37D (11726825_at) / RFU C10orf10 (11716522_x_at) / Fold change /veh C10orf10 (11716522_x_at) / RFU KIR2DL2 /// KIR2DL4 /// KIR2DL5A /// KIR2DL5B /// KIR2DS1 /// KIR2DS2 /// KIR2DS3 /// KIR2DS4 /// KIR3DL3 /// KIR3DL3 /// KIR3DS1 (11738374_at) / Fold change /veh KIR2DL2 /// KIR2DL4 /// KIR2DL5A /// KIR2DL5B /// KIR2DS1 /// KIR2DS2 /// KIR2DS3 /// KIR2DS4 /// KIR3DL3 /// KIR3DL3 /// KIR3DS1 (11738374_at) / RFU C1QL1 (11718748_at) / Fold change /veh C1QL1 (11718748_at) / RFU TMPRSS4 (11747572_a_at) / Fold change /veh TMPRSS4 (11747572_a_at) / RFU HAMP (11756126_x_at) / Fold change /veh HAMP (11756126_x_at) / RFU RNFT2 (11725882_a_at) / Fold change /veh RNFT2 (11725882_a_at) / RFU NR4A2 (11747474_a_at) / Fold change /veh NR4A2 (11747474_a_at) / RFU ABCC12 (11746883_a_at) / Fold change /veh ABCC12 (11746883_a_at) / RFU TMEM136 (11760407_x_at) / Fold change /veh TMEM136 (11760407_x_at) / RFU CLDN22 /// WWC2 (11732394_at) / Fold change /veh CLDN22 /// WWC2 (11732394_at) / RFU HLA-DPB1 (11760878_x_at) / Fold change /veh HLA-DPB1 (11760878_x_at) / RFU SPINT1 (11716480_a_at) / Fold change /veh SPINT1 (11716480_a_at) / RFU GAP43 (11754022_s_at) / Fold change /veh GAP43 (11754022_s_at) / RFU A4GNT (11735810_at) / Fold change /veh A4GNT (11735810_at) / RFU PRB3 (11715151_x_at) / Fold change /veh PRB3 (11715151_x_at) / RFU TUBB4B (11761932_at) / Fold change /veh TUBB4B (11761932_at) / RFU CAPN14 (11732068_a_at) / Fold change /veh CAPN14 (11732068_a_at) / RFU TMCC2 (11721928_a_at) / Fold change /veh TMCC2 (11721928_a_at) / RFU IRGQ (11745062_a_at) / Fold change /veh IRGQ (11745062_a_at) / RFU FAM174B (11720279_a_at) / Fold change /veh FAM174B (11720279_a_at) / RFU TMPRSS4 (11748680_a_at) / Fold change /veh TMPRSS4 (11748680_a_at) / RFU FAM212B (11763350_a_at) / Fold change /veh FAM212B (11763350_a_at) / RFU PLEKHG5 (11743358_a_at) / Fold change /veh PLEKHG5 (11743358_a_at) / RFU ZSCAN30 (11745921_a_at) / Fold change /veh ZSCAN30 (11745921_a_at) / RFU CMKLR1 (11741424_a_at) / Fold change /veh CMKLR1 (11741424_a_at) / RFU LOC101060620 /// MAPK8IP1 (11723275_at) / Fold change /veh LOC101060620 /// MAPK8IP1 (11723275_at) / RFU SPTSSB (11747773_x_at) / Fold change /veh SPTSSB (11747773_x_at) / RFU PRSS12 (11739890_at) / Fold change /veh PRSS12 (11739890_at) / RFU BIN1 (11741810_x_at) / Fold change /veh BIN1 (11741810_x_at) / RFU WNT11 (11732464_a_at) / Fold change /veh WNT11 (11732464_a_at) / RFU C10orf10 (11716521_a_at) / Fold change /veh C10orf10 (11716521_a_at) / RFU C5orf56 (11738089_at) / Fold change /veh C5orf56 (11738089_at) / RFU CYB561 (11721691_x_at) / Fold change /veh CYB561 (11721691_x_at) / RFU ANKRD19P (11752326_a_at) / Fold change /veh ANKRD19P (11752326_a_at) / RFU OR2T12 /// OR2T33 /// OR2T8 (11738714_s_at) / Fold change /veh OR2T12 /// OR2T33 /// OR2T8 (11738714_s_at) / RFU VCAN (11748164_a_at) / Fold change /veh VCAN (11748164_a_at) / RFU JSRP1 (11732532_at) / Fold change /veh JSRP1 (11732532_at) / RFU KRTAP10-11 (11738290_x_at) / Fold change /veh KRTAP10-11 (11738290_x_at) / RFU MYO3A (11730013_a_at) / Fold change /veh MYO3A (11730013_a_at) / RFU EBF3 (11725865_a_at) / Fold change /veh EBF3 (11725865_a_at) / RFU CAMK2N1 (11719241_x_at) / Fold change /veh CAMK2N1 (11719241_x_at) / RFU C5orf56 (11738088_a_at) / Fold change /veh C5orf56 (11738088_a_at) / RFU OLFML3 (11715873_a_at) / Fold change /veh OLFML3 (11715873_a_at) / RFU LOC100653217 /// NTM (11731650_a_at) / Fold change /veh LOC100653217 /// NTM (11731650_a_at) / RFU MAPK11 (11762145_a_at) / Fold change /veh MAPK11 (11762145_a_at) / RFU FIZ1 (11724087_x_at) / Fold change /veh FIZ1 (11724087_x_at) / RFU OASL (11726364_x_at) / Fold change /veh OASL (11726364_x_at) / RFU SOX15 (11748057_x_at) / Fold change /veh SOX15 (11748057_x_at) / RFU CD79A (11719716_a_at) / Fold change /veh CD79A (11719716_a_at) / RFU HIST1H1D (11736915_at) / Fold change /veh HIST1H1D (11736915_at) / RFU CASKIN2 (11723855_a_at) / Fold change /veh CASKIN2 (11723855_a_at) / RFU LOC730098 (11760151_x_at) / Fold change /veh LOC730098 (11760151_x_at) / RFU OR4N2 (11742367_at) / Fold change /veh OR4N2 (11742367_at) / RFU PRRT2 (11749266_a_at) / Fold change /veh PRRT2 (11749266_a_at) / RFU SNX32 (11753110_a_at) / Fold change /veh SNX32 (11753110_a_at) / RFU CDHR5 (11726645_a_at) / Fold change /veh CDHR5 (11726645_a_at) / RFU RCAN1 (11760418_a_at) / Fold change /veh RCAN1 (11760418_a_at) / RFU FAM167A (11723789_a_at) / Fold change /veh FAM167A (11723789_a_at) / RFU FAM26E (11764081_at) / Fold change /veh FAM26E (11764081_at) / RFU ISYNA1 (11749810_s_at) / Fold change /veh ISYNA1 (11749810_s_at) / RFU ACY1 (11761880_at) / Fold change /veh ACY1 (11761880_at) / RFU 11764098_at / Fold change /veh 11764098_at / RFU SAMD14 (11745864_x_at) / Fold change /veh SAMD14 (11745864_x_at) / RFU NPB (11741838_a_at) / Fold change /veh NPB (11741838_a_at) / RFU TMPRSS6 (11731388_a_at) / Fold change /veh TMPRSS6 (11731388_a_at) / RFU KRTAP10-2 (11738614_at) / Fold change /veh KRTAP10-2 (11738614_at) / RFU ARHGAP8 /// PRR5-ARHGAP8 (11727945_x_at) / Fold change /veh ARHGAP8 /// PRR5-ARHGAP8 (11727945_x_at) / RFU KRTAP5-7 /// NADSYN1 (11734609_at) / Fold change /veh KRTAP5-7 /// NADSYN1 (11734609_at) / RFU RASL12 (11751679_a_at) / Fold change /veh RASL12 (11751679_a_at) / RFU CDKN2B (11736163_a_at) / Fold change /veh CDKN2B (11736163_a_at) / RFU PRF1 (11729649_at) / Fold change /veh PRF1 (11729649_at) / RFU, ZNF638 /// ZNF638-IT1 / Fold change vs veh, ZNF638 /// ZNF638-IT1 / RFU, PANK3 / Fold change vs veh, PANK3 / RFU, SH3YL1 / Fold change vs veh, SH3YL1 / RFU, ZEB2 / Fold change vs veh, ZEB2 / RFU, NRIP1 / Fold change vs veh, NRIP1 / RFU, PTTG1IP / Fold change vs veh, PTTG1IP / RFU, CAPN2 / Fold change vs veh, CAPN2 / RFU, MED14 / Fold change vs veh, MED14 / RFU, SNORA58 / Fold change vs veh, SNORA58 / RFU, C1orf63 / Fold change vs veh, C1orf63 / RFU, LRRFIP1 / Fold change vs veh, LRRFIP1 / RFU, NDUFAF7 / Fold change vs veh, NDUFAF7 / RFU, SLC12A2 / Fold change vs veh, SLC12A2 / RFU, IBTK / Fold change vs veh, IBTK / RFU, ESF1 / Fold change vs veh, ESF1 / Fold change vs veh, TMEM50B / RFU, TAOK1 / Fold change vs veh, TAOK1 / RFU, ACBD3 / Fold change vs veh, ACBD3 / RFU, TMA16 / Fold change vs veh, TMA16 / RFU, RWDD3 / Fold change vs veh, RWDD3 / RFU, BCAT1 / Fold change vs veh, BCAT1 / RFU, EDEM3 / Fold change vs veh, EDEM3 / RFU, TMEM33 / Fold change vs veh, TMEM33 / RFU, WDR75 / Fold change vs veh, WDR75 / RFU, AHCTF1 / Fold change vs veh, AHCTF1 / RFU, TFRC / Fold change vs veh, TFRC / RFU, ZDHHC17 / Fold change vs veh, ZDHHC17 / RFU, NOM1 / Fold change vs veh, NOM1 / RFU, ARL8B / Fold change vs veh, ARL8B / RFU, ZBTB11 / Fold change vs veh, ZBTB11 / RFU, TAMM41 / Fold change vs veh, TAMM41 / RFU, KIAA1704 /// LOC100996395 / Fold change vs veh, KIAA1704 /// LOC100996395 / RFU, ING1 / Fold change vs veh, ING1 / RFU, TRMT61B / Fold change vs veh, TRMT61B / RFU, FUBP3 / Fold change vs veh, FUBP3 / RFU, TP53 / Fold change vs veh, TP53 / RFU, TNKS2 / Fold change vs veh, TNKS2 / RFU, ZFP14 / Fold change vs veh, ZFP14 / RFU, ACTR2 / Fold change vs veh, ACTR2 / RFU, PPP3R1 / Fold change vs veh, PPP3R1 / RFU, PIK3R1 / Fold change vs veh, PIK3R1 / RFU, HNRNPA1 / Fold change vs veh, HNRNPA1 / RFU, RNF170 / Fold change vs veh, RNF170 / RFU, ZNF28 / Fold change vs veh, ZNF28 / RFU, RNGTT / Fold change vs veh, RNGTT / RFU, OGT / Fold change vs veh, OGT / RFU, BRD1 / Fold change vs veh, BRD1 / RFU, MARS / Fold change vs veh, MARS / RFU, ZNF655 / Fold change vs veh, ZNF655 / RFU, FAHD1 / Fold change vs veh, FAHD1 / RFU, BDP1 / Fold change vs veh, BDP1 / RFU, LRRCC1 / Fold change vs veh, LRRCC1 / RFU, ARID1A / Fold change vs veh, ARID1A / RFU, ZNF146 / Fold change vs veh, ZNF146 / RFU, ZNF330 / Fold change vs veh, ZNF330 / RFU, GPN3 / Fold change vs veh, GPN3 / RFU, C9orf123 / Fold change vs veh, C9orf123 / RFU, N4BP2L2 / Fold change vs veh, N4BP2L2 / RFU, ARFIP1 / Fold change vs veh, ARFIP1 / RFU, FAM179B / Fold change vs veh, FAM179B / RFU, BCL10 / Fold change vs veh, BCL10 / RFU, UHRF1BP1L / Fold change vs veh, UHRF1BP1L / RFU, BET1 / Fold change vs veh, BET1 / RFU, CNOT2 / Fold change vs veh, CNOT2 / RFU, ZNF268 / Fold change vs veh, ZNF268 / Fold change vs veh, ZNF507 / RFU, DGCR2 / Fold change vs veh, DGCR2 / RFU, WDSUB1 / Fold change vs veh, WDSUB1 / Fold change vs veh, HSP90B1 /// MIR3652 / RFU, ADSS / Fold change vs veh, ADSS / RFU, GK / Fold change vs veh, GK / RFU, ZNF148 / Fold change vs veh, ZNF148 / RFU, TAF9 / Fold change vs veh, TAF9 / RFU, SLC1A5 / Fold change vs veh, SLC1A5 / RFU, SLMO2 / Fold change vs veh, SLMO2 / RFU, ABCC4 / Fold change vs veh, ABCC4 / RFU, LOC101060439 /// RAP1B / Fold change vs veh, LOC101060439 /// RAP1B / RFU, RFX7 / Fold change vs veh, RFX7 / RFU, GTPBP10 / Fold change vs veh, GTPBP10 / RFU, CNEP1R1 / Fold change vs veh, CNEP1R1 / RFU, BIVM-ERCC5 /// ERCC5 / Fold change vs veh, BIVM-ERCC5 /// ERCC5 / RFU, ILF3 / Fold change vs veh, ILF3 / RFU 11762660_at / Fold change /veh 11762660_at / RFU VCAN (11757783_s_at) / Fold change /veh VCAN (11757783_s_at) / RFU DDX43 (11728927_at) / Fold change /veh DDX43 (11728927_at) / RFU KRT8 (11758188_x_at) / Fold change /veh KRT8 (11758188_x_at) / RFU NKD1 (11759106_at) / Fold change /veh NKD1 (11759106_at) / RFU SRD5A1 (11742802_a_at) / Fold change /veh SRD5A1 (11742802_a_at) / RFU TPSAB1 /// TPSB2 (11721975_s_at) / Fold change /veh TPSAB1 /// TPSB2 (11721975_s_at) / RFU GSTM3 (11746129_a_at) / Fold change /veh GSTM3 (11746129_a_at) / RFU IL23R (11737362_x_at) / Fold change /veh IL23R (11737362_x_at) / RFU TMEM51 (11727254_a_at) / Fold change /veh TMEM51 (11727254_a_at) / RFU PIWIL2 (11732686_x_at) / Fold change /veh PIWIL2 (11732686_x_at) / RFU ORM1 (11744905_x_at) / Fold change /veh ORM1 (11744905_x_at) / RFU CCDC152 (11743942_at) / Fold change /veh CCDC152 (11743942_at) / RFU ECM1 (11717891_a_at) / Fold change /veh ECM1 (11717891_a_at) / RFU IL23R (11748794_a_at) / Fold change /veh IL23R (11748794_a_at) / RFU TNFAIP8L3 (11732012_x_at) / Fold change /veh TNFAIP8L3 (11732012_x_at) / RFU MBOAT4 (11741988_at) / Fold change /veh MBOAT4 (11741988_at) / RFU 11764193_at / Fold change /veh 11764193_at / RFU TMEM53 (11763286_at) / Fold change /veh TMEM53 (11763286_at) / RFU MAGEB2 (11727129_at) / Fold change /veh MAGEB2 (11727129_at) / RFU TMEM200A (11744735_a_at) / Fold change /veh TMEM200A (11744735_a_at) / RFU CCDC152 (11751479_a_at) / Fold change /veh CCDC152 (11751479_a_at) / RFU FAM211A (11726209_a_at) / Fold change /veh FAM211A (11726209_a_at) / RFU RGS16 (11746705_a_at) / Fold change /veh RGS16 (11746705_a_at) / RFU VCAN (11755009_s_at) / Fold change /veh VCAN (11755009_s_at) / RFU RHOB (11743442_s_at) / Fold change /veh RHOB (11743442_s_at) / RFU RGS16 (11720943_a_at) / Fold change /veh RGS16 (11720943_a_at) / RFU RGS16 (11720944_at) / Fold change /veh RGS16 (11720944_at) / RFU, VPS4B / Fold change vs veh, VPS4B / RFU, CREB1 / Fold change vs veh, CREB1 / RFU, DNAJC13 / Fold change vs veh, DNAJC13 / RFU, GNAQ / Fold change vs veh, GNAQ / RFU, CDK5R1 / Fold change vs veh, CDK5R1 / RFU, ZRANB3 / Fold change vs veh, ZRANB3 / RFU, CUL4A / Fold change vs veh, CUL4A / RFU, CCNY / Fold change vs veh, CCNY / RFU, UFL1 / Fold change vs veh, UFL1 / RFU, COG3 / Fold change vs veh, COG3 / RFU, DIAPH2 / Fold change vs veh, DIAPH2 / RFU, SKA2 / Fold change vs veh, SKA2 / RFU, AFF3 / Fold change vs veh, AFF3 / RFU, LMF1 / Fold change vs veh, LMF1 / RFU, IPO11 / Fold change vs veh, IPO11 / RFU, DFFB / Fold change vs veh, DFFB / RFU, FOXP1 / Fold change vs veh, FOXP1 / RFU, CARD8 / Fold change vs veh, CARD8 / RFU, STRN3 / Fold change vs veh, STRN3 / RFU, ADK / Fold change vs veh, ADK / RFU, RASSF2 / Fold change vs veh, RASSF2 / RFU, WIPF1 / Fold change vs veh, WIPF1 / RFU, LARP1B / Fold change vs veh, LARP1B / RFU, RASA1 / Fold change vs veh, RASA1 / RFU, RB1 / Fold change vs veh, RB1 / RFU, PPFIA1 / Fold change vs veh, PPFIA1 / RFU, MAT2A / Fold change vs veh, MAT2A / RFU, CCT5 / Fold change vs veh, CCT5 / RFU, WDR92 / Fold change vs veh, WDR92 / RFU, CUX1 / Fold change vs veh, CUX1 / RFU, TTC7A / Fold change vs veh, TTC7A / RFU, TMEM135 / Fold change vs veh, TMEM135 / RFU, DEPTOR / Fold change vs veh, DEPTOR / RFU, CPM / Fold change vs veh, CPM / RFU, DNAJB6 / Fold change vs veh, DNAJB6 / RFU, CACNA2D3 / Fold change vs veh, CACNA2D3 / RFU, DTX4 / Fold change vs veh, DTX4 / RFU, TFCP2 / Fold change vs veh, TFCP2 / RFU, GMCL1 /// GMCL1P1 / Fold change vs veh, GMCL1 /// GMCL1P1 / RFU, AEBP2 / Fold change vs veh, AEBP2 / RFU, SNHG1 /// SNORD22 /// SNORD25 /// SNORD26 /// SNORD27 /// SNORD28 /// SNORD29 /// SNORD31 / Fold change vs veh, SNHG1 /// SNORD22 /// SNORD25 /// SNORD26 /// SNORD27 /// SNORD28 /// SNORD29 /// SNORD31 / Fold change (Aza/veh), C12orf56 (ProbeSet 11735607_a_at) / Fold change (ACY-1035/veh), C12orf56 (ProbeSet 11735607_a_at) / Fold change (Aza/veh), FGFR1OP (ProbeSet 11751329_s_at) / Fold change (ACY-1035/veh), FGFR1OP (ProbeSet 11751329_s_at) / Fold change (Aza/veh), VPS36 (ProbeSet 11739960_a_at) / Fold change (ACY-1035/veh), VPS36 (ProbeSet 11739960_a_at) / RFU SYPL1 (11715823_x_at) / Fold change /veh SYPL1 (11715823_x_at) / RFU IGFBP7 (11715501_s_at) / Fold change /veh IGFBP7 (11715501_s_at) / RFU REEP3 (11722064_at) / Fold change /veh REEP3 (11722064_at) / RFU IGLL1 (11728026_x_at) / Fold change /veh IGLL1 (11728026_x_at): dose or concentration left out as unconfirmed
Conditions: ProbeSet 11721559_s_at; LIST B

Nc1ccc(-c2cccs2)cc1NC(=O)c1ccc2c(c1)cc(C1CC1)n2CCN1CCOCC1 [ACY-1035]
Fold change vs veh, ZNF638 /// ZNF638-IT1: 0.85
